{"source": "patent US11642371B2", "about": "“Encapsulated antimicrobials and related methods of treatment” (ADVANTAGE SILVER DENTAL ARREST, LLC, priority 2018, dated 2023)", "origin": "cited, not measured here", "tested_on": "dentinal caries lesions", "settings": "lesions that had progressed into the dentin"}
{"substance": "Silver diamine fluoride [SDF]", "values": [{"measurement": "dentinal caries lesions found to be arrested after treatment", "value": "two-thirds"}]}
